From patent US11773109B2, “Composition for hardening soft tissue” (The Catholic University of Korea Industry—Academic …, priority 2016, dated 2023)
Entries after “also recorded” stand apart in the source; their conditions may differ.

Experiments:
[1] = tested on: pancreas of mice; test: Hardness (elastic modulus) of the mouse pancreas after treatment, hardness meter (Venustron); format: in vivo
Procedure: The measurement of the hardness according to the present invention is performed using a hardness meter, and measurement of the hardness of the pancreas is performed by measuring elastic modulus (EM) based on the Hooke's law and the Hertz's contact stress theory. The EM is a measure of the stiffness of an elastic material, and is expressed as the ratio of “the stress along the axis” and “the total strain along the axis within the range of the stress” by the Hooke's law.
(§1) More specifically, three mice were treated with 1 mM of each of the antibiotics shown above, and three mice were treated with phosphate buffered saline (PBS) as a control.
(1) Measurement of Hardness
In order to measure the resistance of the pancreas using a hardness meter, the elastic modulus (EM) of the dissected pancreas was measured using Venustron (Axiom, Koriyama, Japan) based on the Hooke's law and the Hertz's contract stress theory, and the resistance of the pancreas was calculated using the following equation: […]
(F, force; v, Poisson's ratio; t, variant of compression; r, the diameter of a rigid spherical probe that presses an object vertically)

[2] = tested on: pancreas of mice; test: Tension (suture-holding capacity) of the mouse pancreas after treatment, Newton dynamometer; format: in vivo; conditions: for response vs control in vivo at 1000 µM: fold of control, read-out: increase of the tension of the pancreas compared to the control
Procedure: Specifically, it means a force which occurs in an organ in response to an external force exerted by stretching or pulling action. The measurement of the tension according to the present invention is performed using a dynamometer. More specifically, the tension is determined by measuring suture-holding capacity using a Newton dynamometer. At this time, the tension is calculated by adding the weight of the tissue.
as §1
(2) Measurement of Tensile
The tension of the pancreas was measured using a dynamometer. Specifically, a pancreatic fragment having a size of 1×1×1.5 cm was prepared, and then silk 4-0 suture was passed through the tissue to form a knob, and suture-holding capacity was measured using a Newton dynamometer. At this time, the tension was calculated by adding the weight of the tissue.

[3] = mouse pancreas treated with 1 mM of compound, compared to control (PBS / untreated), result in words
[4] = mouse pancreas treated with 1 mM of compound

Compound	change in the hardness of the pancreas compared to the control [1, 3]	change in the tension of the pancreas compared to the control [2, 3]	response vs control in vivo at 1000 µM [2, 4] [%]	increase of the hardness of the pancreas compared to the control ([1]; mouse pancreas treated with 1 mM of compound, fold of control) [times]	change in the hardness of the pancreas compared to the control ([1]; mouse, in vivo)	change in the tension of the pancreas compared to the control ([2]; mouse, in vivo)
Oc1ccc(Cl)c2cccnc12 [KRP-00002, 5-chloro-8-hydroxyquinoline]	increased both the hardness and tension	increased both the hardness and tension	≥ 150			
Oc1ccc2ccccc2n1 [KRP-00014, 2-hydroxyquinoline]	increased both the hardness and tension	increased both the hardness and tension	≥ 150			
CC(C)(S)[C@@H](N)C(=O)O [KRM-60037, (S)-2-amino-3-mercapto-3-methylbutanoic acid, reference compound]	had the effects of increasing the tension and hardness	had the effects of increasing the tension and hardness	150			
CC1(C)S[C@@H]2[C@H](NC(=O)Cc3ccccc3)C(=O)N2[C@H]1C(=O)OCCCC#N [KRM-60030, 3-cyanopropyl (2S,5R,6R)-3,3-dimethyl-7-oxo-6-(2-phenylacetamido)-4-thia-1-azabicyclo[3.2.0]heptane-2-carboxylate]	both the hardness and tension of the pancreas increased	both the hardness and tension of the pancreas increased	200	1.5		
Cc1cc(O)c2ccccc2n1 [KRP-00006, 4-hydroxy-2-methylquinoline]	increased both the hardness and tension	increased both the hardness and tension				
CC1(C)S[C@@H]2[C@H](NC(=O)Cc3ccccc3)C(=O)N2[C@H]1C(=O)O.[K+] [KRM-60027, Potassium (2S,5R,6R)-3,3-dimethyl-7-oxo-6-(2-phenylacetamido)-4-thia-1-azabicyclo[3.2.0]heptane-2-carboxylate, reference compound]		significantly increasing the tension; also recorded: had the effects of increasing the tension and hardness; also recorded: increased the tension of the pancreas to a significant level; also recorded: excellent effect on an increase in the tension; also recorded: significant increase in the tension				
Oc1c(I)cc(Cl)c2cccnc12 [KRP-00003, 5-chloro-8-hydroxy-7-iodoquinoline]	increased both the hardness and tension	increased both the hardness and tension	≥ 150			
CC(C)COC(=O)[C@@H]1N2C(=O)[C@@H](NC(=O)Cc3ccccc3)[C@H]2SC1(C)C [KRM-60078, Isobutyl (2S,5R,6R)-3,3-dimethyl-7-oxo-6-(2-phenylacetamido)-4-thia-1-azabicyclo[3.2.0]heptane-2-carboxylate]	increased both the hardness and tension of the pancreas to significant levels	increased both the hardness and tension of the pancreas to significant levels				
COc1cc(Cc2cnc(N)nc2N)cc(OC)c1OC [KRM-60088, 5-(3,4,5-trimethoxybenzyl)pyrimidine-2,4-diamine]	increased both the hardness and tension of the pancreas to significant levels	increased both the hardness and tension of the pancreas to significant levels				
CCn1cc(C(=O)O)c(=O)c2cnc(N3CCNCC3)nc21 [KRM-60082, 8-ethyl-5-oxo-2-(piperazin-1-yl)-5,8-dihydropyrido[2,3-d]pyrimidine-6-carboxylic acid]	increased both the hardness and tension of the pancreas to significant levels	increased both the hardness and tension of the pancreas to significant levels				
Oc1cccc2cccnc12 [KRM-60042, 8-hydroxyquinoline, reference compound]					significantly increases both the hardness and tension; also recorded: had the effects of increasing the tension and hardness; also recorded: increased both the hardness and tension of the pancreas to high levels; also recorded: excellent effects on increases in both the hardness and tension	significantly increases both the hardness and tension; also recorded: had the effects of increasing the tension and hardness; also recorded: increased both the hardness and tension of the pancreas to high levels; also recorded: excellent effects on increases in both the hardness and tension
CC(=O)OCC1=C(C(=O)O)N2C(=O)[C@@H](N)[C@H]2SC1 [KRM-60081, (6R,7R)-3-(acetoxymethyl)-7-amino-8-oxo-5-thia-1-azabicyclo[4.2.0]oct-2-ene-2-carboxylic acid]	increased both the hardness and tension of the pancreas to significant levels	increased both the hardness and tension of the pancreas to significant levels				
C=CCOC(=O)[C@@H]1N2C(=O)[C@@H](NC(=O)Cc3ccccc3)[C@H]2SC1(C)C [KRM-60028, Allyl (2S,5R,6R)-3,3-dimethyl-7-oxo-6-(2-phenylacetamido)-4-thia-1-azabicyclo[3.2.0]heptane-2-carboxylate]	both the hardness and tension of the pancreas increased	both the hardness and tension of the pancreas increased				
Oc1ccc2ncccc2c1 [KRP-00013, 6-hydroxyquinoline]	increased both the hardness and tension	increased both the hardness and tension	≥ 150			
O=C(O)c1cnc2cc(Cl)ccc2c1O [KRP-00001, 7-chloro-4-hydroxy-3-quinolinecarboxylic acid]	increased both the hardness and tension	increased both the hardness and tension	≥ 150			
Oc1cc2ccccc2cn1 [KRP-00010, 3-hydroxyisoquinoline]			~240			
CC(=O)N1CCN(c2ccc(OC[C@H]3CO[C@](Cn4ccnc4)(c4ccc(Cl)cc4Cl)O3)cc2)CC1 [KRM-60049, 1-(4-(4-(((2R,4S)-2-((1H-imidazol-1-yl)methyl)-2-(2,4-dichlorophenyl)-1,3-dioxolan-4-yl)methoxy)phenyl)piperazin-1-yl)ethanone, reference compound]	had the effects of increasing the tension and hardness; also recorded: increased both the hardness and tension of the pancreas to high levels	had the effects of increasing the tension and hardness; also recorded: increased both the hardness and tension of the pancreas to high levels				
O=C(O)c1ccc2cccnc2c1O [KRP-00016, 8-hydroxyquinoline-7-carboxylic acid]	increased both the hardness and tension	increased both the hardness and tension	≥ 150			
O=C(O)c1cnc2cc(C(F)(F)F)ccc2c1O [KRP-00009, 4-hydroxy-7-trifluoromethyl-3-quinolinecarboxylic acid]	increased both the hardness and tension	increased both the hardness and tension	≥ 150			
CC(C)(C)OC(=O)CCOC(=O)[C@@H]1N2C(=O)[C@@H](NC(=O)Cc3ccccc3)[C@H]2SC1(C)C [KRM-60077, 3-(tert-butoxy)-3-oxopropyl (2S,5R,6R)-3,3-dimethyl-7-oxo-6-(2-phenylacetamido)-4-thia-1-azabicyclo[3.2.0]heptane-2-carboxylate]	increased both the hardness and tension of the pancreas to significant levels	increased both the hardness and tension of the pancreas to significant levels				
Oc1ccnc2ccccc12 [KRP-00012, 4-hydroxyquinoline]	increased both the hardness and tension	increased both the hardness and tension	≥ 150			
